Structures are written as SMILES.

By Ki is commonly meant the equilibrium dissociation constant of an inhibitor or competing ligand from its target. Low readings indicate tighter binding, high ones weaker binding.

In the test the target is human capsaicin receptor (VR1) (Homo sapiens, UniProt Q8NER1). The test can be described thus: Capsaicin receptor binding assay ([3H]RTX competition, VR1-transfected HEK293 membranes).
Chain of human capsaicin receptor (VR1) (Q8NER1 whole entry): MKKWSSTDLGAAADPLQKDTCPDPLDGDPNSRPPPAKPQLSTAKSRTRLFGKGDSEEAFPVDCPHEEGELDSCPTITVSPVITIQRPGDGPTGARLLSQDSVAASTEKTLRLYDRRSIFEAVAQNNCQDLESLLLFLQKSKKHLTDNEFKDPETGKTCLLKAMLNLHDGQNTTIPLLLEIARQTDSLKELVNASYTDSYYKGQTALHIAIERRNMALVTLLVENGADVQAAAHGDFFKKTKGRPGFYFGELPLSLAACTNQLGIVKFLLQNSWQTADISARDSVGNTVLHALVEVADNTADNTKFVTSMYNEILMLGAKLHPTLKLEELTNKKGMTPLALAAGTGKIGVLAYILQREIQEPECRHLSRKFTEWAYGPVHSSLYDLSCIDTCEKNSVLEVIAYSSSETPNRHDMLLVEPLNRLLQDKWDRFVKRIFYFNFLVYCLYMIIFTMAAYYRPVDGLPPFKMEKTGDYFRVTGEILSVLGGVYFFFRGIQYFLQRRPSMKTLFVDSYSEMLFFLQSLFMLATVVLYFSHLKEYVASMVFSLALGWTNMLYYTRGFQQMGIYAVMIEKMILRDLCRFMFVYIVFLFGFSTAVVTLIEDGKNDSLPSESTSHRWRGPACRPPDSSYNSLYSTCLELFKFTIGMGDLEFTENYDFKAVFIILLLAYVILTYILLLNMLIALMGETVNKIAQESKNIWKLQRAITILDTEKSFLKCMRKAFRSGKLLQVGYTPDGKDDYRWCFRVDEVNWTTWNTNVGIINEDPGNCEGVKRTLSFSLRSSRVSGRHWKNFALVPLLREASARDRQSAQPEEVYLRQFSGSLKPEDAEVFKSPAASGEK
`COCc1nc(Nc2ccc(C(C)(C)C(C)=O)cc2)c2ccc(-c3ncccc3Cl)nc2n1` [Compound 213, 3-{4-[7-(3-Chloro-pyridin-2-yl)-2-methoxymethyl-pyrido[2,3-d]pyrimidin-4-ylamino]-phenyl}-3-methyl-butan-2-one]: the Ki was less than 1000 nM.

In the case of `CC(C)COCc1nc(Nc2ccc(S(C)(=O)=O)cc2)c2ccc(-c3ncccc3C(F)(F)F)nc2n1` [Compound 214, [2-Isobutoxymethyl-7-(3-trifluoromethyl-pyridin-2-yl)-pyrido[2,3-d]pyrimidin-4-yl]-(4-methanesulfonyl-phenyl)-amine], the Ki was less than 1000 nM. `COCC(C)(C)c1ccc(Nc2nc(COCC(C)C)nc3nc(-c4ncccc4C)ccc23)cc1` [Compound 215, [2-Isobutoxymethyl-7-(3-methyl-pyridin-2-yl)-pyrido[2,3-d]pyrimidin-4-yl]-[4-(2-methoxy-1,1-dimethyl-ethyl)-phenyl]-amine] showed a Ki of less than 1000 nM. `Cc1cccnc1-c1ccc2c(Nc3ccc(S(C)(=O)=O)cc3)nc(COCC(C)C)nc2n1` [Compound 216, [2-Isobutoxymethyl-7-(3-methyl-pyridin-2-yl)-pyrido[2,3-d]pyrimidin-4-yl]-(4-methanesulfonyl-phenyl)-amine] gave a Ki of less than 1000 nM.

On to `CC(C)(C)c1ccc(Nc2nc(C(C)(C)CO)nc3cc(-c4ncccc4C(F)(F)F)ccc23)cc1` [Compound 217, 2-[4-(4-tert-Butyl-phenylamino)-7-(3-trifluoromethyl-pyridin-2-yl)-quinazolin-2-yl]-2-methyl-propan-1-ol], for which the Ki was less than 1000 nM. With `CC(C)(CO)c1nc(Nc2ccc(C(F)(F)F)cc2)c2ccc(-c3ncccc3C(F)(F)F)cc2n1` [Compound 218, 2-Methyl-2-[4-(4-trifluoromethyl-phenylamino)-7-(3-trifluoromethyl-pyridin-2-yl)-quinazolin-2-yl]-propan-1-ol], the Ki is less than 1000 nM. As for `CCOC(=O)c1nc(Nc2ccc(C(C)(C)C)cc2)c2ccc(-c3ncccc3C(F)(F)F)nc2n1` [Compound 219, 4-(4-tert-Butyl-phenylamino)-7-(3-trifluoromethyl-pyridin-2-yl)-pyrido[2,3-d]pyrimidine-2-carboxylic acid ethyl ester], the figure is less than 1000 nM.

Compound `CC(C)(C)c1ccc(Nc2nc(C(=O)O)nc3nc(-c4ncccc4C(F)(F)F)ccc23)cc1` [Compound 220, 4-(4-tert-Butyl-phenylamino)-7-(3-trifluoromethyl-pyridin-2-yl)-pyrido[2,3-d]pyrimidine-2-carboxylic acid] came in with a Ki of less than 1000 nM. Regarding `CCN(CC)C(=O)C(C)(C)c1ccc(Nc2nc(COC)nc3nc(-c4ncccc4C(F)(F)F)ccc23)cc1` [Compound 221, N,N-Diethyl-2-{4-[2-methoxymethyl-7-(3-trifluoromethyl-pyridin-2-yl)-pyrido[2,3-d]pyrimidin-4-ylamino]-phenyl}-isobutyramide], the Ki is less than 1000 nM. `CCN(CC)C(=O)C(C)(C)c1ccc(Nc2nc(COCC(C)C)nc3nc(-c4ncccc4C)ccc23)cc1` [Compound 222, N,N-Diethyl-2-{4-[2-isobutoxymethyl-7-(3-methyl-pyridin-2-yl)-pyrido[2,3-d]pyrimidin-4-ylamino]-phenyl}-isobutyramide] yielded a Ki of less than 1000 nM. As for `CCOCc1nc(Nc2ccc(C(F)(F)F)cc2)c2ccc(-c3ncccc3C(F)(F)F)nc2n1` [Compound 223, [2-Ethoxymethyl-7-(3-trifluoromethyl-pyridin-2-yl)-pyrido[2,3-d]pyrimidin-4-yl]-(4-trifluoromethyl-phenyl)-amine], the figure is less than 1000 nM. Compound `CCOCc1nc(Nc2ccc(C(F)(F)F)nc2)c2ccc(-c3ncccc3C(F)(F)F)nc2n1` [Compound 224, [2-Ethoxymethyl-7-(3-trifluoromethyl-pyridin-2-yl)-pyrido[2,3-d]pyrimidin-4-yl]-(6-trifluoromethyl-pyridin-3-yl)-amine] yielded a Ki of less than 1000 nM. `CCOCc1nc(Nc2ccc(C(C)(C)C#N)cc2)c2ccc(-c3ncccc3C(F)(F)F)nc2n1` [Compound 225, 2-{4-[2-Ethoxymethyl-7-(3-trifluoromethyl-pyridin-2-yl)-pyrido[2,3-d]pyrimidin-4-ylamino]-phenyl}-2-methyl-propionitrile] showed a Ki of less than 1000 nM. `CC(C)COCc1nc(Nc2ccc(S(C)(=O)=O)cc2)c2ccc(-c3ncccc3Cl)nc2n1` [Compound 226, [7-(3-Chloro-pyridin-2-yl)-2-isobutoxymethyl-pyrido[2,3-d]pyrimidin-4-yl]-(4-methanesulfonyl-phenyl)-amine] displayed a Ki of less than 1000 nM.

Take `CCN(CC)CC(C)(C)c1ccc(Nc2nc(COC)nc3nc(-c4ncccc4C)ccc23)cc1` [Compound 227, [4-(2-Diethylamino-1,1-dimethyl-ethyl)-phenyl]-[2-methoxymethyl-7-(3-methyl-pyridin-2-yl)-pyrido[2,3-d]pyrimidin-4-yl]-amine]: the Ki is less than 1000 nM.

The compound `COC(=O)[C@@H](OCc1nc(Nc2ccc(C(C)(C)C)cc2)c2ccc(-c3ncccc3C(F)(F)F)cc2n1)C(C)C` [Compound 228, 2-[4-(4-tert-Butyl-phenylamino)-7-(3-trifluoromethyl-pyridin-2-yl)-quinazolin-2-ylmethoxy]-3-methyl-butyric acid methyl ester (S)] came in with a Ki of less than 1000 nM. As to `C[C@@H](OCc1nc(Nc2ccc(C(C)(C)C)cc2)c2ccc(-c3ncccc3C(F)(F)F)cc2n1)C(=O)O` [Compound 229, (R)-2-[4-(4-tert-Butyl-phenylamino)-7-(3-trifluoromethyl-pyridin-2-yl)-quinazolin-2-ylmethoxy]-propionic acid (chiral)], the Ki was less than 1000 nM. Regarding `CC(C)[C@H](OCc1nc(Nc2ccc(C(C)(C)C)cc2)c2ccc(-c3ncccc3C(F)(F)F)cc2n1)C(=O)O` [Compound 230, (S)-2-[4-(4-tert-Butyl-phenylamino)-7-(3-trifluoromethyl-pyridin-2-yl)-quinazolin-2-ylmethoxy]-3-methyl-butyric acid], the Ki was less than 1000 nM. Turning to `CCOCc1nc(Nc2ccc(C(C)C(F)(F)F)cc2)c2ccc(-c3ncccc3C(F)(F)F)nc2n1` (stereo not shown) [Compound 231, [2-Ethoxymethyl-7-(3-trifluoromethyl-pyridin-2-yl)-pyrido[2,3-d]pyrimidin-4-yl]-[4-(2,2,2-trifluoro-1-methyl-ethyl)-phenyl]-amine], the Ki was less than 1000 nM. Turning to `CC(C)COCc1nc(Nc2ccc(C(C)C(F)(F)F)cc2)c2ccc(-c3ncccc3C(F)(F)F)nc2n1` (stereo not shown) [Compound 232, [2-Isobutoxymethyl-7-(3-trifluoromethyl-pyridin-2-yl)-pyrido[2,3-d]pyrimidin-4-yl]-[4-(2,2,2-trifluoro-1-methyl-ethyl)-phenyl]-amine], the Ki is less than 1000 nM. For `CC(C)COCc1nc(Nc2ccc(C(C)C(F)(F)F)cc2)c2ccc(-c3ncccc3Cl)nc2n1` (stereo not shown) [Compound 233, [7-(3-Chloro-pyridin-2-yl)-2-isobutoxymethyl-pyrido[2,3-d]pyrimidin-4-yl]-[4-(2,2,2-trifluoro-1-methyl-ethyl)-phenyl]-amine], the Ki is less than 1000 nM.

`CC(C)[C@@H](OCc1nc(Nc2ccc(C(C)(C)C)cc2)c2ccc(-c3ncccc3C(F)(F)F)cc2n1)C(=O)O` [Compound 234, 2-[4-(4-tert-Butyl-phenylamino)-7-(3-trifluoromethyl-pyridin-2-yl)-quinazolin-2-ylmethoxy]-3-methyl-butyric acid (R)]: the inhibitory constant (Ki) is less than 1000 nM.

The compound `COCc1nc(Nc2ccc(C(F)(F)F)cc2)c2ccc(-c3nccnc3Cl)nc2n1` [Compound 235, [7-(3-Chloro-pyrazin-2-yl)-2-methoxymethyl-pyrido[2,3-d]pyrimidin-4-yl]-(4-trifluoromethyl-phenyl)-amine] came in with a Ki of less than 1000 nM. The compound `COCc1nc(Nc2ccc(C(C)(C)C)cc2)c2ccc(-c3nccnc3Cl)nc2n1` [Compound 236, (4-tert-Butyl-phenyl)-[7-(3-chloro-pyrazin-2-yl)-2-methoxymethyl-pyrido[2,3-d]pyrimidin-4-yl]-amine] had a Ki of less than 1000 nM.

For `COCc1nc(Nc2ccc(C(C)C)cc2)c2ccc(-c3nccnc3Cl)nc2n1` [Compound 237, [7-(3-Chloro-pyrazin-2-yl)-2-methoxymethyl-pyrido[2,3-d]pyrimidin-4-yl]-(4-isopropyl-phenyl)-amine], the Ki is less than 1000 nM.

`COCc1nc(Nc2ccc(C(C)(C)C#N)cc2)c2ccc(-c3nccnc3Cl)nc2n1` [Compound 238, 2-{4-[7-(3-Chloro-pyrazin-2-yl)-2-methoxymethyl-pyrido[2,3-d]pyrimidin-4-ylamino]-phenyl}-2-methyl-propionitrile] registered a Ki of less than 1000 nM. `COCc1nc(Nc2ccc(S(=O)(=O)C(F)(F)F)cc2)c2ccc(-c3nccnc3Cl)nc2n1` [Compound 239, [7-(3-Chloro-pyrazin-2-yl)-2-methoxymethyl-pyrido[2,3-d]pyrimidin-4-yl]-(4-trifluoromethanesulfonyl-phenyl)-amine] came in with a Ki of less than 1000 nM. In the case of `COCc1nc(Nc2ccc(C(F)F)cc2)c2ccc(-c3ncccc3C(F)(F)F)nc2n1` [Compound 240, (4-Difluoromethyl-phenyl)-[2-methoxymethyl-7-(3-trifluoromethyl-pyridin-2-yl)-pyrido[2,3-d]pyrimidin-4-yl]-amine], the Ki was less than 1000 nM.

On to `CCOCc1nc(Nc2ccc(C(F)F)cc2)c2ccc(-c3ncccc3C(F)(F)F)nc2n1` [Compound 241, (4-Difluoromethyl-phenyl)-[2-ethoxymethyl-7-(3-trifluoromethyl-pyridin-2-yl)-pyrido[2,3-d]pyrimidin-4-yl]-amine], for which the Ki was less than 1000 nM. In the case of `CC(C)COCc1nc(Nc2ccc(C(F)F)cc2)c2ccc(-c3ncccc3C(F)(F)F)nc2n1` [Compound 242, (4-Difluoromethyl-phenyl)-[2-isobutoxymethyl-7-(3-trifluoromethyl-pyridin-2-yl)-pyrido[2,3-d]pyrimidin-4-yl]-amine], the Ki is less than 1000 nM. `COCc1nc(Nc2ccc(C(F)F)cc2)c2ccc(-c3ncccc3Cl)nc2n1` [Compound 243, [7-(3-Chloro-pyridin-2-yl)-2-methoxymethyl-pyrido[2,3-d]pyrimidin-4-yl]-(4-difluoromethyl-phenyl)-amine] showed a Ki of less than 1000 nM.
